Here are results for three molecules from PMC3634896 (Bioorganic & medicinal chemistry letters, 2013).

Each structure is given as a SMILES string. Where “and” joins values, the source holds several entries; their conditions need not be identical. Identical values can stand only once. Where only a bound is given, the exact number is not on record here.

In one data set the target is T1, human M5 (Homo sapiens, UniProt P08912).
T1 sequence (P08912 1-532): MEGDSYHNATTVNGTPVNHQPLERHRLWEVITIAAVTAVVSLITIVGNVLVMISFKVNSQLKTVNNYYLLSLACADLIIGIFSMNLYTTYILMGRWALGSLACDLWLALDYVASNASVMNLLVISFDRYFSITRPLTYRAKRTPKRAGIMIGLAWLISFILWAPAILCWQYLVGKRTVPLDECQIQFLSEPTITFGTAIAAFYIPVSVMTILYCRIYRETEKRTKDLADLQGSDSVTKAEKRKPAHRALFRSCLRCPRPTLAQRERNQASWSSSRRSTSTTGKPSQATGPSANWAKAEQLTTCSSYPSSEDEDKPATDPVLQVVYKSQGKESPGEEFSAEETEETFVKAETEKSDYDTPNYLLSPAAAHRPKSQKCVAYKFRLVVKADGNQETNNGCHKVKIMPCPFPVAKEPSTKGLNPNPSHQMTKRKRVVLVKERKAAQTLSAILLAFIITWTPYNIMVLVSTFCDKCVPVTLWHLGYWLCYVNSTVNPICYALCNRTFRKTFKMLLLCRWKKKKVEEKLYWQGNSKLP
Put plainly: M5 PAM concentration-response-curve. The data set is classed as cell-based. The settings on record: Table 1, average of three independent experiments.

The test system of data set [1] is M1-M4. Put plainly: rat mAChR selectivity versus M1-M4. The data set is classed as cell-based. The settings on record: read-out: M1-M4 EC50s; rat (Fig. 5C); text does not state species.
The nature of data set [2]: ancillary pharmacology profile.
Data set [3] has as its system M1-M4. In words: human mAChR selectivity versus M1-M4. The data set is classed as cell-based. The settings on record: read-out: M1-M4 EC50s; human data is the same as rat.
In the next data set the test system is CYP. Put plainly: CYP profile. The data set is classed as in vitro ADME.
A further data set concerns the target T2, rat M5 (Rattus norvegicus, UniProt P08911).
T2 sequence (P08911 1-531): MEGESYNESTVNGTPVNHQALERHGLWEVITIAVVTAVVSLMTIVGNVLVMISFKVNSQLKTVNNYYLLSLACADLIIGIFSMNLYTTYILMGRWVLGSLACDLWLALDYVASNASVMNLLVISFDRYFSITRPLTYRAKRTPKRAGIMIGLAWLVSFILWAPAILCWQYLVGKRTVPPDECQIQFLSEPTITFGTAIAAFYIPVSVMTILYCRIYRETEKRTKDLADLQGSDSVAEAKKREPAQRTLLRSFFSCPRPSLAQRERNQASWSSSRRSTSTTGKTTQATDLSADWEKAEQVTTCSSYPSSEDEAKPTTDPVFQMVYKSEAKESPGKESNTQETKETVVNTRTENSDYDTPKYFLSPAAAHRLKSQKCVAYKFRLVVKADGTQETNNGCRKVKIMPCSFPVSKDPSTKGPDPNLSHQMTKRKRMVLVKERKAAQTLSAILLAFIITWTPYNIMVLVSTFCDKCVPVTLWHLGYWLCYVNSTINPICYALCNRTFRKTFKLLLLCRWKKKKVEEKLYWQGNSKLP
Put plainly: M5 PAM CRC, rat M5. The data set is classed as cell-based.

Turning to `O=C1C(=O)N(CCOc2ccc(Cl)cc2)c2ccc(OC(F)(F)F)cc21` [Compound 19b], on human M5, the “pEC50±SEM” value came to 6.35±0.04.
Consider `Cc1cccc(OCCN2C(=O)C(=O)c3cc(OC(F)(F)F)ccc32)c1` [Compound 19d], for which, at human M5, the “pEC50±SEM” value is 6.28±0.03.
For the molecule `O=C1C(=O)N(CCOc2ccccc2)c2ccc(OC(F)(F)F)cc21` [ML326, 1-(2-phenoxyethyl)-5-(trifluoromethoxy)indoline-2,3-dione], the EC50 is > 30 µM and < 30 µM in the data set on M1-M4 [1]; over 30 µM in the data set on M1-M4 [3]; 0.5 µM at rat M5. Further, at human M5, the “pEC50±SEM” value is 6.39±0.04. Besides, the ancillary pharmacology profile result in data set [2] is “relatively clean”. The CYP profile result in the data set with CYP was “relatively clean”.
